Reference: patent US20140155420A1, “INHIBITORS OF EYA2” (The Regents of the University of Colorado, a body corporate, priority 2011, published 2014)
“Also recorded” adds a separate entry of the source. One block for each compound: values may come before it.

Tests used:
[1] = target: T1, Eya2 ED (Homo sapiens, UniProt O00167); details: no extra Mg2+ added
T1 sequence (O00167 253-538): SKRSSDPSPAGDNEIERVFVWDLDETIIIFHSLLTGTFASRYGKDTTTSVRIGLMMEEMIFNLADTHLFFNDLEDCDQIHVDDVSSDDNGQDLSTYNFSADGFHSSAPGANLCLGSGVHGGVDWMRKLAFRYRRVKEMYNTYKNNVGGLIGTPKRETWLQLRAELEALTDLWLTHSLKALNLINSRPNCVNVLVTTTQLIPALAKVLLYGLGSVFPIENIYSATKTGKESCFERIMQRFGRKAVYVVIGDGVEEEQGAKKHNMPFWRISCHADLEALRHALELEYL

[2] = tested on: Six1/Eya2-mediated transcription; assay: MEF3-promoter luciferase assay in MCF7 cells; format: cell-based; details: compound incubated 48 hours
Protocol: MCF7 cells were plated in 24-well plates at 25,000 cells/well. 24 hours later, cells were transfected with 300 ng/well pGL3-6xMEF3 (a promoter-luciferase construct in which the promoter contains 6 well characterized Six1 MEF3 binding sites (Spitz et al., 1998)), 70 ng/well renilla luciferase, 100 ng/well pcDNA3.1 Six1, and 200 ng/well of pcDNA3.1-FLAG-Eya2 using FuGENE 6 (Roche Applied Science) transfection reagent. The following day the media was changed and 24 hours later lysates were prepared and analyzed with the Dual Luciferase Kit (Promega) on a Modulus Microplate (Turner Biosystems). An Eya2 phosphatase-dead mutant (D274N) was also used in place of wild type Eya2 to evaluate the effect of Eya2's phosphatase activity on transcription. To assay the effect of Eya2 phosphatase inhibitors on transcriptional activity, compound was added 24 hours after transfection and incubated for 48 hours before lysates were prepared and analyzed for luciferase activity as described above. All results were normalized to renilla activity to account for transfection efficiency and transcriptional activity was normalized to Eya2 protein expression in the Eya2 D274N rescue experiment. The inhibitory effect of the compounds was normalized to vehicle-treated control and statistical significance was determined by performing a one-way ANOVA with Dunnett's post-test on the natural log transformed normalized transcriptional activity.

[3] = UV-Vis spectra with Mg2+ titration; format: physicochemical; details: acetonitrile; for λmax without Mg2+ / λmax with Mg2+: 25 μM compound; for λmax without Mg2+: 0 mM Mg2+
Protocol: Compounds were dissolved in acetonitrile at a final concentration of 25 μM with final Mg^2+ concentration at 0, 0.5, 1, 5, 10, 25, 50, 100 and 200 mM. UV-visible spectra were obtained using an Agilent 8453 UV-Visible Spectrophotometer (Agilent Technologies) in 0.1 cm quartz cuvette at room temperature.
In order to elicit any possible weak association to Mg^2+, the inventors moved on to the organic solvent acetonitrile (Hojo et al., 2002). […] The solutions were prepared such that the absorbance was within the 0-1 range.

[4] = UV-Vis spectra with Na+ titration; format: physicochemical; details: acetonitrile
Protocol: In order to elicit any possible weak association to Mg^2+, the inventors moved on to the organic solvent acetonitrile (Hojo et al., 2002). […] The solutions were prepared such that the absorbance was within the 0-1 range. They observed a dose-dependent shift in the maximum absorbance wavelength (λmax), from 322 nm (0 mM Mg^2+) to 334 nm (100 mM Mg^2+) (FIGS. 11B, 11C). The inventors conducted a similar study with Na where the compound concentration was kept at 12.5 μM and the sodium perchlorate concentration ranged from 0 to 25 mM.

Effect on ED melting temperature (Tm) [1]: reduces Tm
Structure (SMILES): O=C(O)CN(CCN(CC(=O)O)CC(=O)O)CC(=O)O [EDTA]

Intrinsic affinity for Mg2+ [3]: very weak intrinsic affinity
λmax without Mg2+ [3]: 322 nm
λmax with Mg2+ ([3]; 100 mM Mg2+): 334 nm
λmax when titrated with Na+ [4]: 323 nm
Structure (SMILES): O=C(N/N=C/c1ccc(Sc2ccccn2)o1)c1cccc(F)c1 [MLS000544460]
Effect on Six1/Eya2-mediated transcription from the MEF3-luciferase reporter [2]: inhibit
Effect on Six1/Eya2-mediated transcription from the MEF3-luciferase reporter ([2]; listed as MLS00044460): diminish

λmax without Mg2+ [3]: 316 nm
λmax with Mg2+ ([3]; 50 mM Mg2+): 327 nm
Structure (SMILES): Cc1ccccc1C(=O)N/N=C/c1ccc(Sc2ccccn2)o1 [MLS000585814]
Effect on Six1/Eya2-mediated transcription from the MEF3-luciferase reporter [2]: diminish; also recorded: inhibit

Structure (SMILES): O=C(N/N=C/c1ccc(Sc2ccccn2)o1)c1ccncc1 [NCGC00241224]
Effect on Six1/Eya2-mediated transcription from the MEF3-luciferase reporter [2]: does not significantly affect; also recorded: does not significantly inhibit
